Marks after values point to notes of the source that are not given here.
Key:
[1] = MTT cell viability assay in HEK cells; assay type: cell-based, human; details: human; for cytotoxicity at 24 h, 10 µM: compounds discarded, read-out: cell viability affected by; for viability at 24 h, 10 µM: mean ± SEM
Description: (§1) With this approach, 24 oxadiazole-bearing pyrazoles were synthesized and tested in human embryonic kidney (HEK) cells for SOCE inhibition. To this aim, intracellular Ca^2+ stores of HEK cells were emptied with t-butylhydroquinone (tBhQ, 50 μM) in the presence of the compounds at 10 μM concentration. After 600 s, Ca^2+ was added and intracellular levels were measured in fluorescence microscopy with the calcium dye Fura-2. […] For these compounds, the cell viability was therefore evaluated. An MTT assay was performed and the compounds that affected cell viability by more than 25% at 10 μM were discarded (23, 31, and 33). […] According to both activity and cytotoxicity, for the selected five compounds, the representative traces are depicted in Figure 3. […]
(§2) 3-(4,5-Dimethylthiazol-2-yl)-2,5-diphenyltetrazolium bromide (MTT) assay Hek cells were plated in 24-wells plate at 20.000 cells per well. After 24 h, cells were treated for other 24 h with the selected compounds. At the end of treatments, medium was removed and substituted by 300 µL of MTT reagent at the final concentration of 0.25 mg/mL for 60 min at 37 °C. Reactions were then stopped and the crystals were solubilized by adding isopropyl alcohol/HCl (1:1; vol:vol) (Sigma-Aldrich Inc., Italy), before reading the absorbance at 570 nm, using the multi-plate reader Victor 3V (PerkinElmer, Milan, Italy). […]
(§3) All statistical assessments were two-sided and a value of P <0.05 was considered statistically significant. Statistical analyses were performed using GraphPad Prism software (GraphPad Software, Inc., USA).

[2] = test system: Store-operated calcium entry (SOCE); experiment: SOCE in HEK cells, tBhQ store depletion and Ca2+ re-addition, Fura-2 calcium imaging; assay type: cell-based, human; details: Homo sapiens; for activity at 10 µM: HEK293, compound 10 μM, tBhQ 50 μM, vs control, mean ± SEM of three experiments, read-out: % SOCE residual activity (10 μM); for IC50: HEK293, mean ± SEM
Description: With this approach, 24 oxadiazole-bearing pyrazoles were synthesized and tested in human embryonic kidney (HEK) cells for SOCE inhibition. […] After 600 s, Ca^2+ was added and intracellular levels were measured in fluorescence microscopy with the calcium dye Fura-2. […] For these compounds, the cell viability was therefore evaluated. An MTT assay was performed and the compounds that affected cell viability by more than 25% at 10 μM were discarded (23, 31, and 33). […] According to both activity and cytotoxicity, for the selected five compounds, the representative traces are depicted in Figure 3.
Human embryonic kidney (Hek) cells were obtained from ATCC (Rockville, MD, USA) and were cultured in Dulbecco’s Modified Eagle’s Medium (DMEM; Sigma-Aldrich, Italy), supplemented with 10% heat-inactivated FBS (Gibco, Italy), L-glutamine […] (Sigma-Aldrich, Italy), 10 U/mL penicillin, and […] streptomycin (Sigma-Aldrich, Italy) at 37 °C, under a 5% CO2 humidified atmosphere. […]
(KRB, 135 mM NaCl, 5 mM KCl, 0.4 mM KH2PO4, 1 mM MgSO4, 5.5 mM glucose, 20mM HEPES, pH 7.4) containing 2 mM CaCl2 (30 min, room temperature). After which, cells were washed and incubated with KRB for other 30 min to allow de-esterification of […]. To measure SOCE, cells were depleted of calcium in the endoplasmic reticulum with 2,5-t-butylhydroquinone (tBhQ, 50 […]
For calcium imaging experiments, Hek cells were plated onto pre-treated poli-L-lysine (P4832, Sigma-Aldrich, Italy) glass coverslips of 24 mm in 6-well plates Cells were loaded with 5 µM of Fura-2 AM, 0.02% of Pluronic-127 (Life technologies, Italy) and 10 µM of sulfinpyrazone (Sigma-Aldrich, Italy) in KRB containing 2 mM CaCl2 for 30 min at RT. Cells were then washed once with KRB for 15 min for de-esterification of Fura-2 AM.
Coverslips were mounted into the acquisition chamber and placed on the stage of a Leica DMI6000 epifluorescent microscope equipped with S Fluor ×40/1.3 objective. Fura-2 AM was excited by alternate 340 and 380 nm using a Polychrome IV monochromator (Till Photonics, Germany), and the probe emission light was filtered through 520/20 bandpass filter and collected by a cooled CCD camera (Hamamatsu, Japan). The fluorescence signals were acquired and processed using MetaFluor software (Molecular Device, Sunnyvale, CA, USA). To quantify the differences in the amplitudes of Ca2+ transients, the ratio values were normalized using the formula ΔF/F0. […]
In calcium imaging experiments, data are presented as Mean +/- standard error (SEM) or Median and interquartile range (IQR). The normality of data distributions was assessed using the Shapiro−Wilk test. Nonparametric (Mann−Whitney U test and one-way) statistical analysis was used for comparisons of data. All statistical assessments were two-sided and a value of P <0.05 was considered statistically significant. Statistical analyses were performed using GraphPad Prism software (GraphPad Software, Inc., USA).

[3] = In vitro hepatic metabolic stability in MLS9 fraction with NADPH; assay type: in vitro ADME, mouse; details: after 1 h of incubation
Description: The five selected inhibitors (22, 27, 29, 32, and 42) and the identified SOCE enhancer (37) were then evaluated for their in vitro hepatic metabolic stability. To this aim, the candidates were incubated in MLS9 fraction supplied with NADPH and the residual substrate was measured after 1 h. Under these conditions, the oxadiazole-bearing pyrazoles resulted overall metabolically stable, with only two compounds affording a residual substrate lower than 80% and the remaining molecules higher than 90% after incubation (Table 1 and Supporting Information). In contrast, Pyr3 and CIC-37, which suffered from hydrolysis of the ester function, provided a residual substrate of 43 and 74%, respectively (Table 1).[35] Similarly, the residual substrate of Synta66 in MLM is of 15%, due to an important hydrolysis of the amide group, absent in our class (Table 1).[39]
In vitro metabolism and purity of lead compounds
In vitro metabolism studies
Mouse liver S9 (MLS9) (pooled male mouse CD-1, protein concentration: 20 mg/mL) were purchased from Corning B.V. Life Sciences (Amsterdam, The Netherlands) and used throughout this study. The standard incubation mixture (250 μL final volume) was carried out in a 50 mM TRIS (tris[hydroxymethyl]-aminomethane) + 150 mM KCl buffer (pH 7.4) containing 3.3 mM MgCl2, 1.3 mM β-NADP-Na 2, 3.3 mM glucose 6-phosphate, 0.4 Units/mL glucose 6-phosphate dehydrogenase (NADPH regenerating system), 5 μL of acetonitrile ([…]), and the substrate compounds at a concentration of 50 µM. After pre-equilibration of the mixture, an appropriate volume of MLS9 suspension was added to give a final protein concentration of 1.5 mg/mL. The mixture was shaken for 60 min at 37 °C. Each incubation was stopped by addition of 250 μL of ice-cold acetonitrile, vortexed, and centrifuged at 13000 rpm for 10 min. Control incubations were carried out without the presence of MLS9 suspension or cofactors or in absence of the substrate.
LC-UV method for purity and metabolic stability data determination: a Shimadzu HPLC system (Shimadzu, Kyoto, Japan), consisting of two LC-10AD Vp module pumps, an SLC-10A Vp system controller, an SIL-10AD Vp autosampler, and a DGU-14-A on-line degasser were used for the analysis. The SPD-M10Avp photodiode array detector was used to detect the analytes. LC-Solution 1.24 software was used to process the chromatograms.
• Column: Phenomenex Kinetex XB C18, 150 × 4.6 mm (5 µm d.p.) protected with a SecurityGuard® (Torrance, CA, USA).
A: 0.2% formic acid in water;
B: 0.2% formic acid in acetonitrile.

[4] = test system: HEK cells; experiment: MTT cell viability assay in HEK cells; assay type: cell-based, human; details: 10 μM
Description: as §1, §2, §3

IC50 [2] | Structure (SMILES) | viability at 24 h, 10 µM [1] | activity at 10 µM [2] | other results
 | Cc1noc(-c2cnn(-c3ccc(NC(=O)c4snnc4C)cc3)c2C(F)(F)F)n1 [compound 33] | 59.1 ± 6.3% | 46.5 ± 2.8% | cytotoxicity at 24 h, 10 µM [1]: > 25%
 | Cc1noc(-c2cnn(-c3ccc(NC(=O)c4ccncc4F)cc3)c2C(F)(F)F)n1 [compound 20] |  | 53.6 ± 0.9% | 
 | Cc1noc(-c2cnn(-c3ccc(NC(=O)c4ccccc4I)cc3)c2C(F)(F)F)n1 [compound 30] |  | 53.2 ± 3.9% | 
 | CCCCCCCCCCCC(=O)Nc1ccc(-n2ncc(-c3nc(C)no3)c2C(F)(F)F)cc1 [compound 38] |  | 53.8 ± 4.4% | 
 | COc1ccccc1NS(=O)(=O)c1cc(C(=O)Nc2ccc(-n3ncc(-c4nc(C)no4)c3C(F)(F)F)cc2)ccc1C [compound 36] |  | 59.9 ± 4.2% | 
4.4 ± 1.2 µM | CCCC(C)OC(=O)c1cnn(-c2ccc(-n3cc(-c4cccc(C(=O)O)c4)nn3)cc2)c1C(F)(F)F (centres unmarked) [CIC-37, reference compound] | 93.6 ± 4.6% | 17.5 ± 1.6% | 
 | Cc1noc(-c2cnn(-c3ccc(NC(=O)C4CCS(=O)(=O)CC4)cc3)c2C(F)(F)F)n1 [compound 40] |  | 87.5 ± 3.8% | 
9.6 ± 2.5 µM | Cc1noc(-c2cnn(-c3ccc(NC(=O)c4c(C)noc4C)cc3)c2C(F)(F)F)n1 [compound 32] | 77.7 ± 4.4% | 33.2 ± 1.9% | MLS9 stability (residual substrate) [3]: 99% ^b; cytotoxicity [4]: not cytotoxic
 | Cc1noc(-c2cnn(-c3ccc(NC(=O)c4cc(Br)c[nH]4)cc3)c2C(F)(F)F)n1 [compound 35] |  | 69.8 ± 2.9% | melting point: 205 to 206 °C
0.2 ± 0.3 µM | COc1ccc(OC)c(-c2ccc(NC(=O)c3ccncc3F)cc2)c1 [Synta66, reference compound] | 75.8 ± 8% | 9.2 ± 1.7% | 
 | Cc1noc(-c2cnn(-c3ccc(NC(=O)c4cccc(C(=O)O)c4)cc3)c2C(F)(F)F)n1 [compound 19] |  | 77.2 ± 3.7% | 
 | Cc1noc(-c2cnn(-c3ccc(NC(=O)Cc4ccc(Cl)cc4)cc3)c2C(F)(F)F)n1 [compound 24] |  | 121 ± 2.2% | 
5.5 ± 0.8 µM | Cc1noc(-c2cnn(-c3ccc(NC(=O)c4ccc([N+](=O)[O-])cc4)cc3)c2C(F)(F)F)n1 [compound 27] | 80.2 ± 7.4% | 40.8 ± 6.9% | MLS9 stability (residual substrate) [3]: >99% ^b; cytotoxicity [4]: not cytotoxic
 | Cc1noc(-c2cnn(-c3ccc(NC(=O)COc4ccccc4)cc3)c2C(F)(F)F)n1 [compound 41] |  | 63.6 ± 3.9% | 
 | Cc1noc(-c2cnn(-c3ccc(NC(=O)c4ccc5nc[nH]c5c4)cc3)c2C(F)(F)F)n1 [compound 31] | 56.5 ± 2.5% | 47.4 ± 1% | cytotoxicity at 24 h, 10 µM [1]: > 25%
0.5 ± 0.1 µM | CCOC(=O)c1cnn(-c2ccc(NC(=O)C(Cl)=C(Cl)Cl)cc2)c1C(F)(F)F [Pyr3, reference compound] | 28.6 ± 0.5% | 8.9 ± 0.6% | 
 | Cc1noc(-c2cnn(-c3ccc(NC(=O)c4ccc(C(O)(C(F)(F)F)C(F)(F)F)cc4)cc3)c2C(F)(F)F)n1 [compound 26] |  | 109 ± 6.5% | 
9.5 ± 1.7 µM | Cc1ccc(S(=O)(=O)Nc2ccc(-n3ncc(-c4nc(C)no4)c3C(F)(F)F)cc2)cc1 [compound 42] | 79.4 ± 4.2% | 47.6 ± 4.2% | melting point: 149 to 150 °C; MLS9 stability (residual substrate) [3]: 76% ^b; cytotoxicity [4]: not cytotoxic
 | Cc1noc(-c2cnn(-c3ccc(NC(=O)c4ccc(Cl)cc4)cc3)c2C(F)(F)F)n1 [compound 23] | 72.9 ± 11.7% | 40.8 ± 3.6% | cytotoxicity at 24 h, 10 µM [1]: > 25%
 | Cc1noc(-c2cnn(-c3ccc(NC(=O)c4ccc(C(F)(F)F)cc4)cc3)c2C(F)(F)F)n1 [compound 25] |  | 110 ± 5.9% | 
 | Cc1noc(-c2cnn(-c3ccc(NC(=O)CCN4CCOCC4)cc3)c2C(F)(F)F)n1 [compound 39] |  | 95.9 ± 6.2% | 
 | Cc1noc(-c2cnn(-c3ccc(NC(=O)Cc4ccc([N+](=O)[O-])cc4)cc3)c2C(F)(F)F)n1 [compound 28] |  | 108 ± 3.9% | 
3.1 ± 1.4 µM | Cc1noc(-c2cnn(-c3ccc(NC(=O)c4c(F)cccc4F)cc3)c2C(F)(F)F)n1 [compound 22] | 95.6 ± 8.5% | 38.6 ± 4.3% | MLS9 stability (residual substrate) [3]: >99% ^b; cytotoxicity [4]: not cytotoxic
 | Cc1noc(-c2cnn(-c3ccc(NC(=O)c4c(C)cccc4F)cc3)c2C(F)(F)F)n1 [compound 21] |  | 56.7 ± 1.3% | 
9.7 ± 2.3 µM | Cc1noc(-c2cnn(-c3ccc(NC(=O)c4ccc(C#N)c(F)c4)cc3)c2C(F)(F)F)n1 [compound 29] | 101 ± 6.7% | 49.6 ± 6.5% | MLS9 stability (residual substrate) [3]: 73% ^b; cytotoxicity [4]: not cytotoxic
